Laboratory results: patent publication US20120251628A1, “COMPOSITIONS AND METHODS FOR TREATMENT OF CANCER” (priority 2011, published 2012)

Assays:
[1] = tested on: HUVECs; assay: Cytotoxicity test of HUVECs (CellTiter 96 Aqueous One Solution); type: cell-based, Human
Description: To determine the effect, if any, of sodium meta arsenite on vascularization, the effect on endothelial cells (which are essential for vascularization) was first analyzed. Human umbilical cord vein endothelial cells (HUVECs offered by ATCC) were cultivated in 96-well microculture plates containing F-12K (Sigma) medium supplemented with 10% FBS and endothelial cell growth supplement (ECGS, E2759, Sigma). For the cytotoxicity test of the cells after 24 hour cultivation, the cells were treated with KML001 at the concentration of 0.1 nM, 1 nM, 10 nM, 1 uM, 10 uM and 100 uM. At 24 hours and 48 hours after treatment, 20 μl/well of CellTiter 96® Aqueous One Solution (by Promega) Reagent was added on each well and reacted for one hour at 37° C. The reacted 96-well plates were measured at 490 nm using a spectrophotometer (UVStar, Greiner Bio-One). To analyze apoptosis of HUVECs, the cells were cultivated on F25 flasks using the same method as discussed above and then the cells were treated with sodium meta arsenite at a concentration of 10 uM, 20 uM and 50 uM. Cells were collected after 24 and 48 hours. The collected cells were stained for 30 minutes with Annexin-V for FACS analysis. After two washes, the cells were analyzed by using flow cytometry (FACSCALIBUR, BECTON DICLINSON).

[2] = tested on: α-tubulin; assay: Western blot of isolated (soluble) and polymerized tubulin from HUVECs; type: cell-based, Human; conditions: 1 uM, 10 uM and 20 uM, 24 hours, higher concentration
Excerpt: To investigate whether such apoptosis phenomenon is caused by a cytoskeletal abnormality that affects cell division and cell differentiation, the change in α-tubulin expression in the cytoskeleton was identified by the division of tubulin into isolated form (soluble, S) and polymerized form (ppt, P). HUVECs (obtained from ATCC) were cultivated in F25 culture flasks containing F-12K (Sigma) medium supplemented with 10% FBS and endothelial cell growth supplement (ECGS, E2759, Sigma). After cultivation for 24 hours, the cells were treated with sodium meta arsenite at a concentration of 1 uM, 10 uM and 20 uM. Cells were collected 24 hours after treatment. The collected cells were suspended in RIPA buffer (50 mM Tris, pH 7.5, 150 mM NaCl, 1% NP-40, 0.5% sodium deoxychloate, 0.1% SDS, protease inhibitor) at room temperature for 10 minutes and then centrifuged for 30 minutes at 22° C. at 13,200 rpm to separate the supernatant liquid from the sediment. RIPA solution was added to the sediment in the same amount and the sediment was crushed using an ultrasonic cell crusher. The protein from the supernatant liquid and the sediment were assayed using a BCA protein kit (Thermo, 23227) and then the same amount of protein (3 μg) was mixed with protein sample buffer and it was warmed up in a water bath in boiling water at 100° C. for five minutes. SDS-PAGE was conducted on a 10% gel. […]

O=[As][O-].[Na+] [sodium meta arsenite]
concentration at which cytotoxicity was observed ([1]; 24 and 48 hours after treatment, tested 0.1 nM to 100 uM): 10 µM | cytotoxicity over time ([1]; 24 hours vs 48 hours): significantly increased over time | protein level in sediment (polymerized tubulin) [2]: reduced the protein level | protein level in supernatant liquid (isolated tubulin) [2]: reduced the protein level
